Laboratory results reported in patent US9878036B2, “Immunomodulatory compositions comprising a polymer matrix and an oil phase” (Sigmoid Pharma Limited, priority 2009, dated 2018).

Tested on: BALB/c mice
Conditions: mouse, in vivo, po

## ovalbumin alone in solution: model antigen ovalbumin (200 μg/mouse) in bicarbonate buffer, oral comparator
  OVA-specific IgG antibodies in sera: variable IgG antibody responses
